The values below are quoted from earlier work in US20040208833A1, “Novel fluticasone formulations” (Elan Pharma International Ltd., priority 2003, published 2004).

Assay in data set [1]: not given
The source holds these as a separate data set.

The mark [2] stands for this setting: oral dosing of radiolabeled drug.

On to `CCC(=O)O[C@]1(C(=O)SCF)[C@H](C)C[C@H]2[C@@H]3C[C@H](F)C4=CC(=O)C=C[C@]4(C)[C@@]3(F)[C@@H](O)C[C@@]21C` [Fluticasone propionate, S-fluoromethyl-6α,9-difluoro-11β-hydroxy-16α-methyl-3-oxoandrosta-1,4-diene-17β-carbothioate, 17-propionate], for which the “solubility in 95% ethanol” value (95% ethanol) is given as “slightly soluble”. For the same compound, where the note is “dimethyl sulfoxide”, the “solubility in dimethyl sulfoxide” value is recorded as “freely soluble”. Moreover, the solubility in dimethylformamide entry (dimethylformamide) is on record as “freely soluble”. In addition, the solubility in methanol entry (methanol) was “slightly soluble”. In addition, the solubility in water entry (water) is “practically insoluble”. In addition, the oral systemic bioavailability in data set [1] (oral dosing of labeled and unlabeled conventional fluticasone propionate) is less than 1%. Also, in data set [1] (setting [2]), the absorption result is reported as “low”, the extraction from plasma entry is recorded as “highly extracted from plasma” and the oral bioavailability result is given as “neglible”.
